Results taken from the NIST ThermoML archive (doi:10.1016/j.jct.2017.07.006).

Key:
[1] = molar heat capacity at constant pressure; conditions: 101.33 kPa, Liquid, DSC
[2] = Liquid; for thermal conductivity: 101.33 kPa, Laser flash apparatus; for Critical pressure / Critical temperature: Resistive pulse heating

CCCCCCCC(=O)OCC(COC(=O)CCCCCCC)OC(=O)CCCCCCC [1,2,3-propanetriol trioctanoate]
Conditions	molar heat capacity at constant pressure, [1] [J/K/mol]	thermal conductivity, [2] [W/m/K]
315 K	913.3	0.152
320 K	921	0.152
325 K	928.5	0.151
330 K	935.9	0.151
335 K	943.1	0.151
340 K	950.2	0.15
345 K	957.1	0.15
350 K	964	0.15
355 K	970.7	0.149
360 K	977.4	0.149
365 K	984.1	0.148
370 K	990.7	0.148
375 K	997.2	0.147
380 K	1004	0.146
385 K	1010	0.146
390 K	1017	0.145
395 K	1024	0.145
400 K	1030	0.144
405 K	1037	0.144
410 K	1044	0.143
415 K	1051	0.142
420 K	1058	0.142
425 K	1065	0.141

[2]
Conditions	Critical pressure [kPa]	Critical temperature [K]
–	830	836

CCCCCCCCCCCCCC(=O)OCC(COC(=O)CCCCCCCCCCCCC)OC(=O)CCCCCCCCCCCCC [1,2,3-propanetriyl tri(tetradecanoate)]
Conditions	molar heat capacity at constant pressure, [1] [J/K/mol]	thermal conductivity, [2] [W/m/K]
350 K	1547	0.171
355 K	1557	0.17
360 K	1568	0.17
365 K	1580	0.169
370 K	1592	0.169
375 K	1606	0.168
380 K	1619	0.168
385 K	1632	0.168
390 K	1645	0.167
395 K	1657	0.167
400 K	1668	0.166
405 K	1678	0.165
410 K	1686	0.164

[2]
Conditions	Critical pressure [kPa]	Critical temperature [K]
–	610	925

CCCCCCCCCC(=O)OCC(COC(=O)CCCCCCCCC)OC(=O)CCCCCCCCC [1,2,3-propanetriyl tridecanoate]
Conditions	molar heat capacity at constant pressure, [1] [J/K/mol]	thermal conductivity, [2] [W/m/K]
320 K	1093	0.153
325 K	1106	0.153
330 K	1117	0.153
335 K	1128	0.153
340 K	1139	0.153
345 K	1148	0.153
350 K	1157	0.152
355 K	1166	0.152
360 K	1174	0.151
365 K	1182	0.15
370 K	1189	0.15
375 K	1196	0.15
380 K	1203	0.149
385 K	1209	0.148
390 K	1216	0.147
395 K	1222	0.147
400 K	1228	0.146
405 K	1235	0.145
410 K	1241	0.144
415 K	1248	0.143

[2]
Conditions	Critical pressure [kPa]	Critical temperature [K]
–	750	864

CCCCCCCCCCCC(=O)OCC(COC(=O)CCCCCCCCCCC)OC(=O)CCCCCCCCCCC [1,2,3-propanetriyl tridodecanoate]
Conditions	molar heat capacity at constant pressure, [1] [J/K/mol]	thermal conductivity, [2] [W/m/K]
330 K	1316	0.164
335 K	1323	0.163
340 K	1331	0.162
345 K	1340	0.161
350 K	1350	0.161
355 K	1361	0.16
360 K	1372	0.16
365 K	1384	0.159
370 K	1396	0.159
375 K	1407	0.158
380 K	1418	0.158
385 K	1428	0.157
390 K	1438	0.156
395 K	1446	0.155
400 K	1453	0.154
405 K	1458	0.153
410 K	1461	0.151

[2]
Conditions	Critical pressure [kPa]	Critical temperature [K]
–	650	899
